Where no end group is shown, it is not given here.
Key:
A. versicolor LMA-370 = type: cell-based, Aspergillus versicolor; details: 48 h
Method: (§1) A microtitration assay was conducted to determine the minimum inhibitory concentration (MIC) of the peptides against the collection of indicator microorganisms. The growth medium used for the isolated bacterial and fungal strains was TSB and PDB, respectively. In brief, 175 µL of the culture medium was added to the wells of column 1 (negative growth control) and 125 µL to the wells of columns 2–12. Subsequently, 125 µL of each peptide (stock concentration of 2.5 mM), positive control (stock concentration of 256 µg/mL for ampicillin in bacterial tests and 50 µg/mL for natamycin in fungal tests) and negative control (10% DMSO in H2O (v/v)) were added to the wells in column 3 and mixed by pipetting up and down 10 times. A total of 125 µL from column 3 was removed and transferred to column 4, where serial dilutions were performed until the final dilution reached column 12. The final volume was then discarded. […] Subsequently, 50 µL of the indicator strain suspension (at a concentration of 10^5 CFU/mL for yeasts and bacteria and 10^4 CFU/mL for molds) was introduced to all the wells, except for column 1. The culture medium used for culture suspension was identical to that employed in the agar well diffusion method. The microplate was incubated for 24 h at 37 °C for bacterial isolates and for 48 h at 25 °C for fungal isolates.
(§2) The minimal bactericidal/fungicidal concentration (MBC/MFC) was calculated by transferring 10 µL of the wells where no growth could be detected to agar plates (TSA for bacterial isolates and Dichloran Rose Bengal Chloramphenicol Agar (DBRC)) (BD Difco Laboratories, Sparks, MD, USA). After incubation (24 h, 37 °C for bacteria and 48 h, 25 °C, for fungi), the peptide concentration with which no growth was observed, was considered to be the MBC/MFC. The MBC/MIC and MFC/MIC ratios were calculated in order to ascertain the effect of the peptides. A ratio of ≤4 is indicative of bactericidal/fungicidal efficacy, whereas a ratio of >4 indicates bacteriostatic/fungistatic activity.

[1] = test system: Debaryomyces hansenii LL11042; type: cell-based; details: 48 h
Method: as §1, §2

[2] = test system: Paecilomyces spp. 5332-9a; type: cell-based; details: 48 h
Method: as §1, §2

[3] = test system: Rhodotorula mucilaginosa 27173; type: cell-based; details: 48 h
Method: as §1, §2

Eurotium rubrum 3071.14a = type: cell-based; details: 48 h
Method: as §1, §2

[4] = test system: Penicillium chrysogenum LMA-212; type: cell-based; details: 48 h
Method: as §1, §2

C. guilliermondii 27168 = type: cell-based, Candida guilliermondii; details: 48 h
Method: (§3) A microtitration assay was conducted to determine the minimum inhibitory concentration (MIC) of the peptides against the collection of indicator microorganisms. The growth medium used for the isolated bacterial and fungal strains was TSB and PDB, respectively. In brief, 175 µL of the culture medium was added to the wells of column 1 (negative growth control) and 125 µL to the wells of columns 2–12. Subsequently, 125 µL of each peptide (stock concentration of 2.5 mM), positive control (stock concentration of 256 µg/mL for ampicillin in bacterial tests and 50 µg/mL for natamycin in fungal tests) and negative control (10% DMSO in H2O (v/v)) were added to the wells in column 3 and mixed by pipetting up and down 10 times. A total of 125 µL from column 3 was removed and transferred to column 4, where serial dilutions were performed until the final dilution reached column 12. The final volume was then discarded. […]
(§4) The minimal bactericidal/fungicidal concentration (MBC/MFC) was calculated by transferring 10 µL of the wells where no growth could be detected to agar plates (TSA for bacterial isolates and Dichloran Rose Bengal Chloramphenicol Agar (DBRC)) (BD Difco Laboratories, Sparks, MD, USA). […] The MBC/MIC and MFC/MIC ratios were calculated in order to ascertain the effect of the peptides. […]

Mucor racemosus LMA-722 = type: cell-based; details: 48 h
Method: as §1, §2

P. commune 27163 = type: cell-based, Penicillium commune; details: 48 h
Method: as §3, §4

[5] = test system: Paecilomyces spp. 5332-9a; type: cell-based; details: Figure 1 pictures C,D; peptides 2.5 mM, natamycin 50 µg/mL, 80 µL per well; 25 °C, 48 h
Method: (§5) The sixteen peptides were initially tested using the agar well diffusion method against the indicator strains E. coli, L. ivanovii, R. mucilaginosa, and Paecilomyces spp., as previously described in [22]. To perform this procedure, 25 µL of the prepared culture suspension (adjusted to 10^6 CFU/mL for bacteria and yeasts and 10^5 CFU/mL for molds) was diluted in 25 mL of Tryptic Soy Broth (TSB) (for bacterial strains) or Potato Dextrose Broth (PDB) (for fungal strains) supplemented with 0.75% agar and poured into a Petri dish (90 mm diameter) until dried. The culture media of the suspension was prepared using TSB for bacterial cultures and peptone water (10% w/v) supplemented with 0.1% Tween 80 (w/w) for fungal cultures as it enhances spore dispersion. Subsequent to the drying process, wells were formed using a sterile 5 mL pipette. A volume of 80 µL of each peptide at a concentration of 2.5 mM was added to each well. Ampicillin (MilliporeSigma Canada Ltd., Oakville, ON, Canada), at a concentration of 256 µg/mL and natamycin (MilliporeSigma Canada Ltd., Oakville, ON, Canada) at 50 µg/mL, were used as positive controls for bacterial and fungal tests, respectively, as they are wide-spectrum antimicrobials. The solvent of the peptides was included as negative control in all experiments. […] Thereafter, inhibition halos were measured, and images were captured using a Biorad Chemidoc camera.

[6] = test system: Rhodotorula mucilaginosa 27173; type: cell-based; details: Figure 1 pictures A,B; peptides 2.5 mM, natamycin 50 µg/mL, 80 µL per well; 25 °C, 48 h
Method: as §5

| Compound | MIC, Aspergillus versicolor (A. versicolor LMA-370) [µM] | MIC, Debaryomyces hansenii [1] [µM] | MFC, Activity Against Paecilomyces spp. [2] [µM] | MIC, Activity Against Paecilomyces spp. [2] [µM] | MIC, Activity Against R. mucilaginosa [3] [µM] | MIC, Eurotium rubrum (Eurotium rubrum 3071.14a) [µM] | MIC, Penicillium chrysogenum [4] [µM] | MFC, Activity Against R. mucilaginosa [3] [µM] | other results |
| --- | --- | --- | --- | --- | --- | --- | --- | --- | --- |
| FRLLGNVIVVV [Pep4] | 312 ± 0 | 312 ± 0 | 625 ± 0 | 625 ± 0 | 375 | 312 ± 0 | 156 ± 0 | – | – |
| FQKVVAGVANALAHKYH [Pep5] | 39 ± 0 | 156 ± 0 | 9 ± 0 | 9 ± 0 | 39 ± 0 | 39 ± 0 | 312 ± 0 | 78 ± 0 | MFC, Candida guilliermondii (C. guilliermondii 27168): 625 ± 0 µM; MIC, Candida guilliermondii (C. guilliermondii 27168): 312 ± 0 µM; MFC, Aspergillus versicolor (A. versicolor LMA-370): 78 ± 0 µM; MFC, Debaryomyces hansenii [1]: 156 ± 0 µM; MFC, Eurotium rubrum (Eurotium rubrum 3071.14a): 78 ± 0 µM; MFC, Mucor racemosus (Mucor racemosus LMA-722): 312 ± 0 µM; MIC, Mucor racemosus (Mucor racemosus LMA-722): 312 ± 0 µM; MFC, Penicillium commune (P. commune 27163): 312 ± 0 µM; MIC, Penicillium commune (P. commune 27163): 312 ± 0 µM |
| LAHKYH [Pep15] | – | – | – | 1250 ± 0 | 1250 ± 0 | – | – | 1250 ± 0 | – |
| QKVVAGVANALAHKYH [Pep14] | – | – | 78 ± 0 | 78 ± 0 | 78 ± 0 | – | – | 78 ± 0 | – |
| NALAHKYH [Pep3] | – | – | 1250 ± 0 | 625 ± 0 | 625 ± 0 | – | – | 625 ± 0 | – |
| C[C@@H]1C/C=C/C=C/C=C/C=C/[C@H](O[C@@H]2O[C@H](C)[C@@H](O)[C@H](N)[C@@H]2O)C[C@@H]2O[C@](O)(C[C@@H](O)C[C@H]3O[C@@H]3/C=C/C(=O)O1)C[C@H](O)[C@H]2C(=O)O [Natamycin, natamycin] | – | – | – | – | – | – | – | – | inhibition halo (qualitative) [5]: Clear inhibition halos; inhibition halo (qualitative) [6]: Clear inhibition halos |
